Results from ChEMBL document CHEMBL4364286, “Structure-Guided Design, Synthesis, and Biological Evaluation of (2-(1H-Indol-3-yl)-1H-imidazol-4-yl)(3,4,5-trimethoxyphenyl) Methanone (ABI-231) Analogues Targeting the Colchicine Binding Site in Tubulin” (J Med Chem, 2019).
The source made the active and inactive calls. The calls are words filed in the database; no cut-off is given here.

Tests used:
A-375 [1] = test: Antiproliferative activity against human A375 cells after 72 hrs by MTT assay; assay type: functional, cell-based; conditions: A-375, 72 h
WM164 = test: Antiproliferative activity against human WM164 cells after 72 hrs by MTT assay; assay type: functional, cell-based; conditions: WM164, 72 h
M14 = test: Antiproliferative activity against human M14 cells after 72 hrs by MTT assay; assay type: functional, cell-based; conditions: M14, 72 h
[2] = Antiproliferative activity against human DU145-TxR cells; assay type: functional, cell-based
PC-3 [3] = test: Antitumor activity against human PC3 cells xenografted in nude mouse assessed as tumor growth inhibition at 15 mg/kg administered every other day for 3 weeks relative to control; assay type: functional; conditions: PC-3, 504 h, read-out: TGI
A-375 [4] = test: Antitumor activity against human A375 cells xenografted in nude mouse assessed as tumor growth inhibition at 15 mg/kg, ip administered once daily for 14 days and measured after 20 days by caliper method relative to control; assay type: functional; conditions: A-375, ip, read-out: TGI
[5] = Antitumor activity against human PC3-TxR cells xenografted in nude mouse assessed as tumor growth inhibition at 15 mg/kg administered every other day for 3 weeks relative to control; assay type: functional; conditions: 504 h, read-out: TGI
[6] = Antitumor activity against human PC3-TxR cells xenografted in nude mouse assessed as reduction in tumor weight at 15 mg/kg administered every other day for 3 weeks relative to control; assay type: functional; parameters: scale not given: the % may be the effect or the level left
Tubulin (Homo sapiens) [7] = biological target: T1, Tubulin (Homo sapiens) (UniProt P68371+Q9H4B7+P0DPH7+P68366+Q13509+Q71U36+P04350+Q3ZCM7+P07437+P68363+Q9BQE3+Q6PEY2+Q13885+Q9BVA1+Q9BUF5); test: Effect on microtubule network in human WM164 cells assessed as formation of dense and aggregated bundles of microtubules at 100 nM after 18 hrs by DAPI staining based fluorescence confocal microscopic method; assay type: cell-based
Tubulin (Bos taurus) [8] = biological target: T2, Tubulin (Bos taurus) (UniProt Q6B856+Q862L2+Q862F3); test: Induction of bovine brain tubulin polymerization at 10 uM measured at time interval of 1 mins for 20 mins by spectrophotometric analysis
[9] = Resistance index, ratio of IC50 for human DU145-TxR cells to IC50 for human DU145 cells; assay type: functional
Tubulin (Homo sapiens) [10] = biological target: T1, Tubulin (Homo sapiens); test: Effect on microtubule network in human WM164 cells assessed as induction of polymerization at 100 nM after 18 hrs by DAPI staining based fluorescence confocal microscopic method; assay type: cell-based
DU-145 = test: Antiproliferative activity against human DU145 cells; assay type: functional, cell-based
Tubulin (Bos taurus) [11] = biological target: T2, Tubulin (Bos taurus); test: Inhibition of bovine brain tubulin polymerization at 10 uM measured at time interval of 1 mins for 20 mins by spectrophotometric analysis
[12] = Half-life in CD-1 mouse liver microsomes in presence of NADPH regenerating system measured up to 4 hrs by UPLC-MS analysis; assay type: ADME, Microsome
A-375 [13] = test: Antimigratory activity in human A375 cells assessed as wound closure at 5 nM after 22 hrs by scratch migration assay (reference value: 60.7 +/- 3.5%); assay type: functional
[14] = Half-life in human liver microsomes in presence of NADPH regenerating system; assay type: ADME, Microsome
A-375 [15] = test: Antimigratory activity in human A375 cells assessed as wound closure at 25 nM after 22 hrs by scratch migration assay (reference value: 60.7 +/- 3.5%); assay type: functional
[16] = Intrinsic clearance in rat liver microsomes pre-incubated for 15 mins followed by addition of NADPH regenerating system by LC-MS analysis; assay type: ADME, Microsome; conditions: read-out: CLH
Tubulin (Homo sapiens) [17] = biological target: T1, Tubulin (Homo sapiens); test: Disruption of microtubule network in human WM164 cells assessed as microtubule disassembly at 100 nM after 18 hrs by DAPI staining based fluorescence confocal microscopic method; assay type: cell-based
[18] = Resistance index, ratio of IC50 for human PC3-TxR cells to IC50 for human PC3 cells; assay type: functional
[19] = Intrinsic clearance in CD-1 mouse liver microsomes in presence of NADPH regenerating system measured up to 4 hrs by UPLC-MS analysis; assay type: ADME, Microsome; conditions: read-out: CLH
RPMI-7951 = test: Antimigratory activity in human RPMI7951 cells assessed as wound closure at 25 nM after 18 hrs by scratch migration assay (reference value: 71.8 +/- 1.8%); assay type: functional
[20] = Half-life in rat liver microsomes pre-incubated for 15 mins followed by addition of NADPH regenerating system by LC-MS analysis; assay type: ADME, Microsome
[21] = Intrinsic clearance in human liver microsomes in presence of NADPH regenerating system; assay type: ADME, Microsome; conditions: read-out: CLH
[22] = Antiproliferative activity against human PC3-TxR cells; assay type: functional, cell-based
PC-3 [23] = test: Antiproliferative activity against human PC3 cells; assay type: functional, cell-based
Tubulin (Homo sapiens) [24] = biological target: T1, Tubulin (Homo sapiens); test: Disruption of microtubule network in human WM164 cells assessed as microtubule fragmentation at 100 nM after 18 hrs by DAPI staining based fluorescence confocal microscopic method; assay type: cell-based
A-375 [25] = test: Inhibition of anchorage-dependent colony formation in human A375 cells assessed as decrease in colony number at 5 nM after 12 days by crystal violet-staining based assay relative to control; assay type: functional; conditions: A-375, 288 h

| IC50 (A-375 [1]; read-out: IC50) | Compound | IC50 (WM164) | IC50 (M14) | other results |
| --- | --- | --- | --- | --- |
| 61.8 nM | COc1cc(C(=O)c2c[nH]c(-c3c[nH]c4ccc(Cl)cc34)n2)cc(OC)c1OC | 160 nM | 64.9 nM | – |
| 13.8 nM | COc1cc(C(=O)c2c[nH]c(-c3c[nH]c4cccc(Br)c34)n2)cc(OC)c1OC | 67.1 nM | 10.4 nM | – |
| 286 nM | COc1cc(C(=O)c2c[nH]c(-c3cccc4cc[nH]c34)n2)cc(OC)c1OC | 436 nM | 241 nM | – |
| 164 nM | COc1cc(C(=O)c2c[nH]c(-c3c[nH]c4ccc(Br)cc34)n2)cc(OC)c1OC | 442 nM | 104 nM | – |
| 19.2 nM | COc1cc(C(=O)c2c[nH]c(-c3c[nH]c4ccc(F)cc34)n2)cc(OC)c1OC | 80.9 nM | 18 nM | – |
| 13.1 nM | COc1cc(C(=O)c2c[nH]c(-c3c[nH]c4c(C)cccc34)n2)cc(OC)c1OC | 61.3 nM | 10.8 nM | – |
| 793 nM | COc1ccc2c(-c3nc(C(=O)c4cc(OC)c(OC)c(OC)c4)c[nH]3)c[nH]c2c1 | > 1000 nM | > 1000 nM | – |
| – | CC(=O)O[C@H]1C(=O)[C@@]2(C)[C@H]([C@H](OC(=O)c3ccccc3)[C@]3(O)C[C@H](OC(=O)[C@H](O)[C@@H](NC(=O)c4ccccc4)c4ccccc4)C(C)=C1C3(C)C)[C@]1(OC(C)=O)CO[C@@H]1C[C@@H]2O [PACLITAXEL] | – | – | IC50 [2]: > 1000 nM; inhibition in vivo at 15 mg/kg (PC-3 [3]): 101%; inhibition in vivo at 15 mg/kg (A-375 [4]): 68.6%; inhibition in vivo at 15 mg/kg [5]: 37.8%; Activity [6]: 34.5% |
| 7.2 nM | COc1cc(C(=O)c2c[nH]c(-c3c[nH]c4cccc(F)c34)n2)cc(OC)c1OC | – | 8.2 nM | – |
| 17.5 nM | COc1cc(C(=O)c2c[nH]c(-c3c[nH]c4cc(F)ccc34)n2)cc(OC)c1OC | 10.3 nM | 5.8 nM | – |
| > 1000 nM | COc1cc(C(=O)c2c[nH]c(-c3c(-c4ccccc4)[nH]c4ccccc34)n2)cc(OC)c1OC | > 1000 nM | > 1000 nM | – |
| 8.6 nM | COc1cc(C(=O)c2c[nH]c(-c3ccc4[nH]ccc4c3)n2)cc(OC)c1OC | 6.1 nM | 18.5 nM | – |
| 38.3 nM | COc1cc(C(=O)c2c[nH]c(-c3c[nH]c4c(OC)cccc34)n2)cc(OC)c1OC | 115 nM | 34.1 nM | – |
| – | CC(=O)O[C@@]12CO[C@@H]1C[C@H](O)[C@@]1(C)C(=O)[C@H](O)C3=C(C)[C@@H](OC(=O)[C@H](O)[C@@H](NC(=O)OC(C)(C)C)c4ccccc4)C[C@@](O)([C@@H](OC(=O)c4ccccc4)[C@H]21)C3(C)C [DOCETAXEL ANHYDROUS] | – | – | IC50 [2]: 352 nM; Activity (Tubulin (Homo sapiens) [7]): Active; Activity (Tubulin (Bos taurus) [8]): Active; Ratio IC50 [9]: >3523; Activity (Tubulin (Homo sapiens) [10]): Active |
| 278 nM | COc1cc(C(=O)c2c[nH]c(-c3c[nH]c4ccc(C)cc34)n2)cc(OC)c1OC | 552 nM | 177 nM | – |
| > 1000 nM | COc1cc(C(=O)c2c[nH]c(-c3c[nH]c4cc(O)ccc34)n2)cc(OC)c1OC | > 1000 nM | > 1000 nM | – |
| > 1000 nM | COc1cc(C(=O)c2c[nH]c(-c3c[nH]c4cc(OCc5ccccc5)ccc34)n2)cc(OC)c1OC | > 1000 nM | > 1000 nM | – |
| > 1000 nM | COC(=O)c1ccc2c(-c3nc(C(=O)c4cc(OC)c(OC)c(OC)c4)c[nH]3)c[nH]c2c1 | > 1000 nM | > 1000 nM | – |
| > 1000 nM | COc1cc(C(=O)c2c[nH]c(-c3c[nH]c4cccc(OCc5ccccc5)c34)n2)cc(OC)c1OC | > 1000 nM | > 1000 nM | – |
| 1.8 nM | COc1cc(C(=O)c2c[nH]c(-c3c[nH]c4cccc(C)c34)n2)cc(OC)c1OC | 3.2 nM | 1.7 nM | IC50 (DU-145): 13.8 nM; IC50 [2]: 25.2 nM; inhibition (Tubulin (Bos taurus) [11]): Active; half-life [12]: 2.42 h; Ratio IC50 [9]: 1.8; Activity (A-375 [13]): 48.5%; half-life [14]: 6.7 h; Activity (A-375 [15]): 25.9%; CLint scaled [16]: 26 mL/min/kg; Activity (Tubulin (Homo sapiens) [17]): Active; Ratio IC50 [18]: 0.8; CLint scaled [19]: 23.6 mL/min/kg; Activity (RPMI-7951): 35.6%; half-life [20]: 1.8 h; CLint scaled [21]: 3.1 mL/min/kg; IC50 [22]: 3.9 nM; IC50 (PC-3 [23]): 5.2 nM; Activity (Tubulin (Homo sapiens) [24]): Active; inhibition at 0.005 µM (A-375 [25]): 59% |
| 67.8 nM | COc1cc(C(=O)c2c[nH]c(-c3c[nH]c4cc(Br)ccc34)n2)cc(OC)c1OC | 55.4 nM | 41.2 nM | – |
| 8 nM | COc1cc(C(=O)c2c[nH]c(-c3ccc4cc[nH]c4c3)n2)cc(OC)c1OC | 3.8 nM | 6.1 nM | half-life [12]: 5.56 h; half-life [14]: 7.61 h; CLint scaled [16]: 3.1 mL/min/kg; CLint scaled [19]: 10.3 mL/min/kg; half-life [20]: 15.2 h; CLint scaled [21]: 2.73 mL/min/kg |
| 21.1 nM | COc1cc(C(=O)c2c[nH]c(-c3c[nH]c4cc(C)ccc34)n2)cc(OC)c1OC | 23.7 nM | 21.7 nM | – |
| > 1000 nM | COc1cc(C(=O)c2c[nH]c(-c3c[nH]c4c(OCc5ccccc5)cccc34)n2)cc(OC)c1OC | > 1000 nM | > 1000 nM | – |
| > 1000 nM | COc1cc(C(=O)c2c[nH]c(-c3c[nH]c4cccc(OC)c34)n2)cc(OC)c1OC | > 1000 nM | > 1000 nM | – |
| > 1000 nM | COc1cc(C(=O)c2c[nH]c(-c3c[nH]c4ccc(OCc5ccccc5)cc34)n2)cc(OC)c1OC | > 1000 nM | > 1000 nM | – |
| > 1000 nM | COc1cc(C(=O)c2c[nH]c(-c3c[nH]c4ccc(O)cc34)n2)cc(OC)c1OC | > 1000 nM | > 1000 nM | – |
| – | COc1cc2c(c(OC)c1OC)-c1ccc(OC)c(=O)cc1[C@@H](NC(C)=O)CC2 [COLCHICINE] | 10.8 nM | 16.6 nM | IC50 (DU-145): 35.5 nM; IC50 [2]: > 1000 nM; IC50 (A-375 [1]): 14.1 nM; Ratio IC50 [9]: >28; Activity (A-375 [13]): 46%; Activity (A-375 [15]): 20.7%; Ratio IC50 [18]: 3.6; Activity (RPMI-7951): 42.8%; IC50 [22]: 37.4 nM; IC50 (PC-3 [23]): 10.4 nM; inhibition at 0.005 µM (A-375 [25]): 24.7% |
